Results as given in patent US5633231A, “Valine-containing pseudopeptides with antiviral activity” (Bayer Aktiengesellschaft, priority 1993, dated 1997).

Assays:
HCMV (Davis) = assay: Anti-HCMV (Davis) activity: inhibition of the cytopathogenic effect in HELF cell cultures, 96-well screening test; type: cell-based, human cytomegalovirus
Method: (§1) The anti-HCMV effect was determined in a screening test system in 96-well microtitre plates with the aid of human embryonic lung fibroblast (HELF) cell cultures. The influence of the substances on the spread of the cytopathogenic effect was compared with that of the reference substance ganciclovir ([…]® sodium), a clinically approved anti-HCMV chemotherapeutic agent. The substances, dissolved (50 mM) in DMSO (dimethyl sulphoxide), are investigated on microtitre plates (96-well) at final concentrations of 1000-0.00048 μM (micromolar) in double determinations (4 substances/plate). In this test, both the toxic and cytostatic effects of the substances are recorded. […] After staining with neutral red and fixing with formalin/methanol, the plates are evaluated using a projection microscope (plaque viewer).

[1] = test system: human embryonic lung fibroblast (HELF) cell cultures; assay: Anti-cellular (toxic and cytostatic) effect on HELF cells in the same screening test; type: cell-based; settings: 6 days at 37° C.
Method: as §1

- IC50 (HCMV (Davis); Human betaherpesvirus 5, 144 h, read-out: IC50 (μM) (HCMV) = concentration which elicits 50% inhibition of the CPE, HCMV (Davis)-infected HELF cells, 6 days, neutral red staining): 2 to 4 µM
Structure (SMILES): Nc1nc(O)c2ncn(COC(CO)CO)c2n1 [Cymevene^R Na, ganciclovir]
- SI (selectivity index) (HCMV (Davis); HELF versus HCMV, definition given only as a drawing): 32-64
- CIC50 (μM) (HELF) = highest concentration at which no obvious anticellular effect is evident [1]: 125 µM
